Results published in patent US8883738B2, “Use of a peptide fragment of CD44v6 in the treatment of ophthalmic diseases” (Karlsruher Institut für Technologie, priority 2009, dated 2014).

Experiments:
MDA-MB231 tumors = assay: Orthotopic MDA-MB231 mammary tumor model, tumor-induced angiogenesis; assay type: in vivo, SCID mice
Method: Injections of tumor cells MDA-MB231 cells (1×10^6 per animal) were harvested at subconfluency, washed with PBS and resuspended in 50 μl of PBS. The cells were implanted through a skin incision with an insulin syringe very slowly into the mammary fat pad of the fourth mammary complex of anesthetized female SCID mice (strain C.B-17/Ztm-scid). The incision was closed using an interrupted Vicryl suture for the skin (5/0, Ethicon, Norderstedt, Germany). The tumors were allowed to grow for one week, then the animals were divided in groups (6 to 7 animals per group) and treated with 20 μg of anti-mouse CD44v6 (clone 9A4), control IgG (NatuTec, Frankfurt, Germany), mouse v6 peptide or control peptide three times per week i.p. Tumor growth was monitored once per week using a caliper or via fpVCT imaging (see below). The animals were sacrificed 5 weeks after tumor cell implantation, the tumors were excised, measured, divided in halves and fixed in 4% formalin or zinc fixative (0.5 g/l calcium acetate, 5 g/l zinc acetate, 5 g/l zinc chloride in 0.1 M Tris pH 7.4) for 24 h for immunohistological analysis. L3.6pl human pancreatic cancer cells were injected orthotopically. Briefly, a small left abdominal flank incision was made and the spleen was exteriorized. […] The tumor volume was calculated as length×height×width divided by 2. […]

VEGFR-2 = target: T1, VEGFR-2 (Homo sapiens, UniProt P35968); assay: Activation of VEGFR-2 (phospho-VEGFR-2 Western blot) in HUVEC; assay type: cell-based; settings: 100 μg/ml anti-CD44v6, 100 ng/ml peptide
T1 construct: endogenous in cells; host or cells: HUVEC (Provitro GmbH)
T1 sequence (P35968 20-1356): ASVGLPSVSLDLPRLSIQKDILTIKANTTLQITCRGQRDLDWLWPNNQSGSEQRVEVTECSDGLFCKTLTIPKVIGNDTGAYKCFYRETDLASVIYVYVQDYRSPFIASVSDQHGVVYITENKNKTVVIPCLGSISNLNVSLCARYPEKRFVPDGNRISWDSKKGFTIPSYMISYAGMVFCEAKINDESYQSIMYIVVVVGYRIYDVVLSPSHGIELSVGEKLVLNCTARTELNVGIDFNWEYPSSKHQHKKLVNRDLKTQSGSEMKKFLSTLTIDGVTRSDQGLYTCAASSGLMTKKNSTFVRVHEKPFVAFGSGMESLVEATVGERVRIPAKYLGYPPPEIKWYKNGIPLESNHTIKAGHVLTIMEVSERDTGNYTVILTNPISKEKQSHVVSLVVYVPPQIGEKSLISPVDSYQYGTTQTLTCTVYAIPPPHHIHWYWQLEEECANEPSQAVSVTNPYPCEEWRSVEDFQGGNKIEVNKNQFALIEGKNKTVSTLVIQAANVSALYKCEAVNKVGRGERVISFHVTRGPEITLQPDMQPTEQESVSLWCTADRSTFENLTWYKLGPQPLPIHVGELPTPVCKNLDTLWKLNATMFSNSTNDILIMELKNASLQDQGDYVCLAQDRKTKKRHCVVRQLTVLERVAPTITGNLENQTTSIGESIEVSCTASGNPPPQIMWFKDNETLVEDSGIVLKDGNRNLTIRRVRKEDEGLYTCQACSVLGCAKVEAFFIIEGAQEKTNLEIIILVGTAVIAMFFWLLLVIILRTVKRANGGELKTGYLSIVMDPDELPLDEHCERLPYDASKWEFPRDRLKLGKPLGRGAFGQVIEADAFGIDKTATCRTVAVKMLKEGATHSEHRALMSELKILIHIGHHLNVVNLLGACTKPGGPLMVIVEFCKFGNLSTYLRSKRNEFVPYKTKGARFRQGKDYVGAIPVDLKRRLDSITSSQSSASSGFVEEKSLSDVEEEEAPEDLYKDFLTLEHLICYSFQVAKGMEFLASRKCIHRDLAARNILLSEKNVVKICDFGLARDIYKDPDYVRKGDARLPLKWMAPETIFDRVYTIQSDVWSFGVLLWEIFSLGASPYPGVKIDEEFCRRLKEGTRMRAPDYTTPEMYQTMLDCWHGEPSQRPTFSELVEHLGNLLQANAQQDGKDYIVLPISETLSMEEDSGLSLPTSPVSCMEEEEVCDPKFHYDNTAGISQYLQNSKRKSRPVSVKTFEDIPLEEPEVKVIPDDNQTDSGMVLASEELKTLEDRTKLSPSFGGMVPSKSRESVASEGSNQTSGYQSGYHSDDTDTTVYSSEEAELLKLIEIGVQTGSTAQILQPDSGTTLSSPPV
Method: Activation of RTKs and Erk Serum starved cells (24 h) were induced with the growth factor HGF (20 ng/ml) at 37° C. for 5 min or with VEGF-A165 or VEGF-A121 (40 ng/ml) at 37° C. for 8 min. Where indicated, the cells were treated with blocking reagents prior to induction at 37° C. for 10 min (100 μg/ml anti-CD44v6, 100 ng/ml v6 peptide or 100 ng/ml control peptide, 0.5 μg/ml CD44v6ECD). Cells were washed with icecold PBS. To detect activated Erk, cells were lysed in boiling SDS-sample buffer containing 100 mM dithiothreitol (DTT) and subjected to Western blot analysis using antibodies against phosphorylated Erk. The Erk loading control was performed on the same blot stripped (62.5 mM Tris pH 6.8, 2% SDS, 0.8% DTT) and probed with the Erk antibody. To detect activated VEGFR-2, cells were lysed in reducing sample buffer and the blots of SDS-PAGE gels were probed with an antibody against phosphorylated VEGFR-2. Alternatively, lysates (20 mM Tris pH 7.4, 1 mM EDTA, 1 mM EGTA, 1 mM DTT, 25 mM NaCl, 1.5% Triton X-100, 10 mM NaF, 1 mM PMSF, 1 mM Na-orthovanadate, 1 mM aprotinin and leupeptin) were prepared. […] Bands in Western blot analysis were quantified with the program Image J.

Erk = assay: Activation of Erk (phospho-Erk Western blot) in HUVEC; assay type: cell-based, human; settings: 100 μg/ml anti-CD44v6, 100 ng/ml peptide, 0.5 μg/ml CD44v6ECD; for VEGF-A165 induced activation of Erk: VEGF-A165 40 ng/ml
Method: Activation of RTKs and Erk Serum starved cells (24 h) were induced with the growth factor HGF (20 ng/ml) at 37° C. for 5 min or with VEGF-A165 or VEGF-A121 (40 ng/ml) at 37° C. for 8 min. Where indicated, the cells were treated with blocking reagents prior to induction at 37° C. for 10 min (100 μg/ml anti-CD44v6, 100 ng/ml v6 peptide or 100 ng/ml control peptide, 0.5 μg/ml CD44v6ECD). Cells were washed with icecold PBS. To detect activated Erk, cells were lysed in boiling SDS-sample buffer containing 100 mM dithiothreitol (DTT) and subjected to Western blot analysis using antibodies against phosphorylated Erk. The Erk loading control was performed on the same blot stripped (62.5 mM Tris pH 6.8, 2% SDS, 0.8% DTT) and probed with the Erk antibody. To detect activated VEGFR-2, cells were lysed in reducing sample buffer and the blots of SDS-PAGE gels were probed with an antibody against phosphorylated VEGFR-2. Alternatively, lysates (20 mM Tris pH 7.4, 1 mM EDTA, 1 mM EGTA, 1 mM DTT, 25 mM NaCl, 1.5% Triton X-100, 10 mM NaF, 1 mM PMSF, 1 mM Na-orthovanadate, 1 mM aprotinin and leupeptin) were prepared. After centrifugation, the cleared lysates (12,000 rpm for 15 min) were incubated with VEGFR-2 antibody (clone A-3, Santa Cruz, Heidelberg, Germany) or a mouse IgG control (Santa Cruz, Heidelberg, Germany) at 4° C. overnight followed by incubation with Protein A/G agarose beads (Merck, Darmstadt, Germany) for 2 h at 4° C. The beads were washed three times, boiled in sample buffer and subjected to Western blot analysis using phospho-specific VEGFR-2 antibody. To obtain the loading control, the blots were stripped and reprobed with the VEGFR-2 antibody. Blots were stained using the enhanced chemiluminescence system (ECL, Thermo Fischer Scientific Inc., Waltham, Mass.). Bands in Western blot analysis were quantified with the program Image J.

For “QETWFQNGWQGKNP (listed as Mus musculus) [v6 murine peptide]”, the tumor growth (MDA-MB231 tumors; 20 μg i.p. three times per week for four weeks) was “not influenced” and the “average vessel number (microvessel density)” value (MDA-MB231 tumors; CD31 stained tumor sections, 20 μg i.p. three times per week, five animals each) was 183 per mm^2.

“CD44v6ECD: soluble CD44v6 ectodomain produced in Pichia pastoris” was tested, and the “activation of VEGFR-2 by VEGF-A121” value (VEGFR-2; VEGF-A121 40 ng/ml, 0.5 μg/ml CD44v6ECD) was “completely blocked”, the “HGF induced activation of Erk” value (Erk; HGF 20 ng/ml) was “completely abrogated” and the “VEGF-A121 induced activation of Erk” value (Erk; VEGF-A121 40 ng/ml) was “completely blocked”. The “VEGF-A165 induced activation of Erk” value (Erk) was “completely abrogated”.

With “KEQWFGNRWHEGYR (listed as Homo sapiens) [v6 human peptide (14mer)]” the “activation of VEGFR-2 by VEGF-A165” value (VEGFR-2; VEGF-A165 40 ng/ml) was “abrogated” and the “VEGF-A165 induced activation of Erk” value (Erk) was “abrogated”.
